pIC50: −log10 of the molar value. Like-named read-outs stand apart in the source and are kept apart here.
Legend:
VIM-1 = VIM-1 (Pseudomonas aeruginosa (strain ATCC 15692 / DSM 22644 / CIP 104116 / JCM 14847 / LMG 12228 / 1C / PRS 101 / PAO1), UniProt A0A0F7KYQ8); experiment: Enzyme activity: determination of IC50, fluorescence assay with CCF2-FA substrate (VIM-1); type: biochemical
[1] = system: Serratia marcescens expressing IMP-1 (CL5741); experiment: Antibiotic potentiation activity: synergistic concentration (MITC95) with imipenem, OD600 growth; type: cell-based; settings: for Serratia marcescens expressing IMP-1 (CL5741) MITC95: concentration giving 95% inhibition of bacterial growth
How it was run: (§1)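 Bacteria were grown overnight on agar at 35 °C, diluted 1:100 from saline into 1.1× CAMHB, then given compound with or without imipenem (4 μg/ml in assay, optionally 1 μg/ml). Endpoint: absorbance at 22–24 h.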

[2] = system: Klebsiella pneumoniae expressing VIM-1 (IHMA599644); experiment: as above; type: cell-based; settings: for Klebsiella pneumoniae expressing VIM-1 (IHMA 599644) MITC95: concentration giving 95% inhibition of bacterial growth
How it was run: as §1

[3] = system: Escherichia coli expressing NDM-1 (CLB30016); experiment: as above; type: cell-based; settings: for Escherichia coli expressing NDM-1 (CLB 30016) MITC95: concentration giving 95% inhibition of bacterial growth
How it was run: as §1

IMP-1 = IMP-1 (Serratia marcescens, UniProt P52699); experiment: biochemical; type: biochemical; settings: read-out: IMP-1 IC50
NDM-1 = NDM-1 (Klebsiella pneumoniae, UniProt C7C422); experiment: biochemical; type: biochemical; settings: read-out: NDM-1 IC50
[4] = fluorescence assay with CCF2-FA substrate, read-out: VIM-1 IC50
[5] = CL5741 (IMP-1), 95% inhibition of bacterial growth
[6] = IHMA599644 (VIM-1), 95% inhibition of bacterial growth
[7] = CLB30016 (NDM-1), 95% inhibition of bacterial growth
[8] = fluorescence assay with CCF2-FA substrate
[9] = VIM-1 enzyme, CCF2-FA substrate, read-out: VIM-1 IC50
[10] = Serratia marcescens CL5741 (IMP-1), 95% growth inhibition
[11] = Klebsiella pneumoniae IHMA599644 (VIM-1), 95% growth inhibition
[12] = (CLB30016, NDM-1), 95% growth inhibition
[13] = IMP-1 enzyme, CCF2-FA substrate
[14] = NDM-1 enzyme, CCF2-FA substrate
[15] = VIM-1 enzyme, CCF2-FA fluorescence assay, read-out: VIM-1 IC50
[16] = Serratia marcescens expressing IMP-1 (CL5741), 95% growth inhibition
[17] = Klebsiella pneumoniae expressing VIM-1 (IHMA599644), 95% growth inhibition
[18] = Escherichia coli expressing NDM-1 (CLB30016), 95% growth inhibition
[19] = IMP-1 enzyme, CCF2-FA fluorescence assay
[20] = NDM-1 enzyme, CCF2-FA fluorescence assay

Chain of IMP-1 (P52699 whole entry, looked up): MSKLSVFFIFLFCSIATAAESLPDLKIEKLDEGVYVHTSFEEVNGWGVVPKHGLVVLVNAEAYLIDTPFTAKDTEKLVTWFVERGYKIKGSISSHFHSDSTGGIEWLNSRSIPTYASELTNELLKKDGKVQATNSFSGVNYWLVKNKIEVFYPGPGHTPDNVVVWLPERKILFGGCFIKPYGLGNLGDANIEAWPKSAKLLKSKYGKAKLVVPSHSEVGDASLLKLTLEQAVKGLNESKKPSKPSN
Chain of NDM-1 (C7C422 whole entry, looked up, species assumed): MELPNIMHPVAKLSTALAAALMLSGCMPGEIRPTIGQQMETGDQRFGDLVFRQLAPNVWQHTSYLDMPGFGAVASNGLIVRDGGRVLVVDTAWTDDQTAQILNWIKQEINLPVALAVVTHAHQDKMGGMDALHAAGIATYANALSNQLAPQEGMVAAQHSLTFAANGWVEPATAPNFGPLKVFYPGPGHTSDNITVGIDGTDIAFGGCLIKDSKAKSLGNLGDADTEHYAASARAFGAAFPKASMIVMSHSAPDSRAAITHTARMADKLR

SMILES | pIC50 (VIM-1; [4]) | pIC50 (IMP-1; [8]) | pIC50 (NDM-1; [8]) | pIC50 (VIM-1; [9]) | Serratia marcescens MITC95 [1, 10] [µM] | Klebsiella pneumoniae MITC95 [2, 11] [µM] | Escherichia coli MITC95 [3, 12] [µM] | pIC50 (IMP-1; [13]) | pIC50 (NDM-1; [14]) | also measured
CC(C)(C)C(=O)NCC1CCN(c2ccc(C(F)(F)F)c(S(N)(=O)=O)c2-c2nnn[nH]2)CC1 [Example 760, 2,2-dimethyl-N-({1-[3-sulfamoyl-2-(1H-tetrazol-5-yl)-4-(trifluoromethyl)phenyl]piperidin-4-yl}methyl) propanamide] | 8.82 | 8.68 | 8.25 |  |  |  |  |  |  | Serratia marcescens MITC95 [1, 5]: 25 µM; Klebsiella pneumoniae MITC95 [2, 6]: 100 µM; Escherichia coli MITC95 [3, 7]: 100 µM
NCCN1CC(c2ccc(-c3ccc(C(F)(F)F)c(S(N)(=O)=O)c3-c3nnn[nH]3)cc2)C1 [Example 812, 4′-[1-(2-aminoethyl)azetidin-3-yl]-2-(1H-tetrazol-5-yl)-4-(trifluoromethyl)biphenyl-3-sulfonamide] | 8.41 | 8.24 | 8.57 |  |  |  |  |  |  | Serratia marcescens MITC95 [1, 5]: 6.25 µM; Klebsiella pneumoniae MITC95 [2, 6]: 12.5 µM; Escherichia coli MITC95 [3, 7]: 1.563 µM
Nc1nc(-c2ccc(-c3ccc(C(F)(F)F)c(S(N)(=O)=O)c3-c3nnn[nH]3)cc2)cs1 [Example 732, 4′-(2-amino-1,3-thiaozl-4-yl)-2-(1H-tetrazol-5-yl)-4-(trifluoromethyl)biphenyl-3-sulfonamide] |  |  |  | 9.16 | 3.125 | 25 | 0.7813 | 9.42 | 9.27 | 
NS(=O)(=O)c1c(C(F)(F)F)ccc(C2CCCc3sc(C(=O)O)nc32)c1-c1nnn[nH]1 (stereo not drawn) [Example 510, 4-(3-Sulfamoyl-2-(1H-tetrazol-5-yl)-4-(trifluoromethyl)phenyl)-4,5,6,7-tetrahydrobenzo[d]thiazole-2-carboxylic acid] |  |  |  | 7.89 | 200 | >200 | 50 | 7.32 | 8.47 | 
NS(=O)(=O)c1cccc(-c2ccc(CNCCO)cc2)c1-c1nnn[nH]1 [Example 390, 4′-{[(2-hydroxyethyl)amino]methyl}-2-(1H-tetrazol-5-yl)biphenyl-3-sulfonamide] |  |  |  |  |  |  |  |  |  | pIC50 (VIM-1; [15]): 6.65; Serratia marcescens MITC95 [1, 16]: 6.25 µM; Klebsiella pneumoniae MITC95 [2, 17]: 62.5 µM; Escherichia coli MITC95 [3, 18]: 0.7813 µM; pIC50 (IMP-1; [19]): 6.32; pIC50 (NDM-1; [20]): 7.92
Nc1[nH]nc2cc(-c3cccc(S(N)(=O)=O)c3-c3nnn[nH]3)ccc12 [Example 131, 3-(3-amino-2H-indazol-6-yl)-2-(1H-tetrazol-5-yl)benzenesulfonamide] | 7.77 | 6.73 | 9.15 |  |  |  |  |  |  | Serratia marcescens expressing IMP-1 (CL5741) MITC95 [1]: 3.125 µM; Klebsiella pneumoniae expressing VIM-1 (IHMA 599644) MITC95 [2]: 3.125 µM; Escherichia coli expressing NDM-1 (CLB 30016) MITC95 [3]: 0.7813 µM
NS(=O)(=O)c1c(C(F)(F)F)ccc(CC[C@H]2CC[C@H](N)CC2)c1-c1nn[nH]n1 [Example 431, 3-(2-((1r,4s)-4-aminocyclohexyl)ethyl)-2-(2H-tetrazol-5-yl)-6-(trifluoromethyl)benzenesulfonamide] |  |  |  |  |  |  |  |  |  | pIC50 (VIM-1; [15]): 9.36; Serratia marcescens MITC95 [1, 16]: 0.125 µM; Klebsiella pneumoniae MITC95 [2, 17]: 1.531 µM; Escherichia coli MITC95 [3, 18]: 2.563 µM; pIC50 (IMP-1; [19]): 8.43; pIC50 (NDM-1; [20]): 7.75
N=C(N)N1CC(c2ccc(-c3ccc(C(F)(F)F)c(S(N)(=O)=O)c3-c3nn[nH]n3)cc2)C1 [Example 434, 3-(3′-sulfamoyl-2′-(2H-tetrazol-5-yl)-4′-(trifluoromethyl)-[1,1′-biphenyl]-4-yl)azetidine-1-carboximidamide] |  |  |  |  |  |  |  |  |  | pIC50 (VIM-1; [15]): 9.76; Serratia marcescens MITC95 [1, 16]: 0.09375 µM; Klebsiella pneumoniae MITC95 [2, 17]: 0.7656 µM; Escherichia coli MITC95 [3, 18]: 0.543 µM; pIC50 (IMP-1; [19]): 8.73; pIC50 (NDM-1; [20]): 8.75
NCCC1CCC(N[C@H]2CC[C@H](c3ccc(C(F)(F)F)c(S(N)(=O)=O)c3-c3nnn[nH]3)CC2)CC1 (stereo partly drawn) [Example 705, 3-(4-{[4-(2-aminoethyl)cyclohexyl]a-mino}cyclohexyl)-2-(1H-tetrazol-5-yl)-6-(trifluoromethyl)benzene sulfonamide] |  |  |  | 8.24 | 4.688 | 12.5 | 2.344 | 7.21 | 7.74 | 
Nc1cc(-c2cccc(S(N)(=O)=O)c2-c2nnn[nH]2)cc(N)n1 [Example 133, 3-(2,6-diaminopyridin-4-yl)-2-(1H-tetrazol-5-yl)benzenesulfonamide] | 6.97 | 5.31 | 7.67 |  |  |  |  |  |  | Serratia marcescens expressing IMP-1 (CL5741) MITC95 [1]: 37.5 µM; Klebsiella pneumoniae expressing VIM-1 (IHMA 599644) MITC95 [2]: 6.25 µM; Escherichia coli expressing NDM-1 (CLB 30016) MITC95 [3]: 0.3906 µM
Cc1ccc(Cc2cccc(S(N)(=O)=O)c2-c2nnn[nH]2)cc1 [Example 163, 3-(4-methylbenzyl)-2-(1H-tetrazol-5-yl)benzenesulfonamide] | 6.36 | 6.49 | 7.75 |  |  |  |  |  |  | Serratia marcescens expressing IMP-1 (CL5741) MITC95 [1]: 12.5 µM; Klebsiella pneumoniae expressing VIM-1 (IHMA 599644) MITC95 [2]: >200 µM; Escherichia coli expressing NDM-1 (CLB 30016) MITC95 [3]: 3.125 µM
Nc1nc2cccc(-c3ccc(CC4CCNCC4)c(S(N)(=O)=O)c3-c3nn[nH]n3)c2[nH]1 [Example 612, 3-(2-amino-3H-benzo[d]imidazol-4-yl)-6-(piperidin-4-ylmethyl)-2-(2H-tetrazol-5-yl)benzenesulfonamide] |  |  |  | 8.14 | 2.563 | 1.281 | 0.5 | 7.18 | 8.79 | 
CN(C)C1(C)CN(c2ccc(-c3cccc(S(N)(=O)=O)c3-c3nnn[nH]3)cn2)C1 [Example 625, 3-[6-[3-(dimethylamino)-3-methyl-azetidin-1-yl]-3-pyridyl]-2-(1H-tetrazol-5-yl)benzenesulfonamide] |  |  |  | 5.87 | 12.5 | >200 | 2.344 | 6.69 | 7.43 | 
NC(=O)c1ccc(-c2ccc(C(F)(F)F)c(S(N)(=O)=O)c2-c2nn[nH]n2)cn1 [Example 527, 5-(3-Sulfamoyl-2-(2H-tetrazol-5-yl)-4-(trifluoromethyl)phenyl)picolinamide] |  |  |  | 8.54 | 12.5 | 12.5 | 6.25 | 7.97 | 8.15 | 
NS(=O)(=O)c1c(C(F)(F)F)ccc([C@H]2CC[C@H](NCC3CCCN3)CC2)c1-c1nnn[nH]1 (stereo partly drawn) [Example 681, 3-{4-[(pyrrolidin-2-ylmethyl)amino]cyclohex-yl}-2-(1H-tetrazol-5-yl)-6-(trifluoromethyl)benzene sulfonamide] |  |  |  |  | 3.125 | 6.25 | 1.563 | 7.79 | 8.06 | pIC50 (VIM-1; VIM-1 IC50, VIM-1 enzyme, CCF2-FA substrate): 8.15
Nc1nc2c(-c3cccc(S(N)(=O)=O)c3-c3nnn[nH]3)cccc2s1 [Example 134, 3-(2-aminobenzo[d]thiazol-4-yl)-2-(1H-tetrazol-5-yl)benzenesulfonamide] | 7.96 | 7.65 | 9.55 |  |  |  |  |  |  | Serratia marcescens expressing IMP-1 (CL5741) MITC95 [1]: 0.7813 µM; Klebsiella pneumoniae expressing VIM-1 (IHMA 599644) MITC95 [2]: 3.125 µM; Escherichia coli expressing NDM-1 (CLB 30016) MITC95 [3]: 0.5859 µM
CN(c1ccnc(S(N)(=O)=O)c1-c1nnn[nH]1)C1CCCCC1 [Example 232, 4-[cyclohexyl(methyl)amino]-3-(1H-tetrazol-5-yl)pyridine-2-sulfonamide] |  | 5.12 | 6.05 |  |  |  |  |  |  | pIC50 (VIM-1; VIM-1 IC50, fluorescence assay with CCF2-FA substrate): 6.78; Serratia marcescens expressing IMP-1 (CL5741) MITC95 [1]: >200 µM; Klebsiella pneumoniae expressing VIM-1 (IHMA 599644) MITC95 [2]: 150 µM; Escherichia coli expressing NDM-1 (CLB 30016) MITC95 [3]: 50 µM
Nc1ccc(-c2ccc(CC[C@H]3CC[C@@H](N)CC3)c(S(N)(=O)=O)c2-c2nnn[nH]2)cn1 [Example 578, 6-(2-((1s,4r)-4-aminocyclohexyl)ethyl)-3-(6-aminopyridin-3-yl)-2-(1H-tetrazol-5-yl)benzenesulfonamide] |  |  |  | 7.95 | 12.5 | 50 | 3.125 | 7.33 | 8.73 | 
